Results taken from PMC10317891, “Fibroblast activation protein targeted radiotherapy induces an immunogenic tumor microenvironment and enhances the efficacy of PD-1 immune checkpoint inhibition” (European Journal of Nuclear Medicine and Molecular Imaging, 2023).
Numbered stars: 1 amine (or outer) side, 2 acyl side, 3 side chain; on linkers, the order of the positions; unused ones are H or OH. Bridge positions count the residues as written; N and C are the ends. Peptide text beside a SMILES is read from it. * marks the point of attachment. X1 = O=C(O)CN1CCN(CC(=O)O)CCN(CC(=O)N2CCN(Cc3cc(C[*:1])cc(C[*:2])c3)CC2)CCN(CC(=O)O)CC1; Hexanoyl = CCCCCC(=O)*

Experiment: Plasma stability
Type: in vitro ADME
Settings: 10 µM, 37°C, UHPLC-QTOF MS with internal standard
Procedure: FAP-2287 was incubated in 50 µL of plasma with 3.8% sodium citrate as anticoagulant at a concentration of 10 µM. After 1, 2, 4, and 24 hours incubation at 37°C a suitable internal standard was added. FAP-2287 with plasma proteins were precipitated using 250 µL of a precipitation agent consisting of 1% trifluoroacetic acid in acetonitrile. Precipitation was carried out at room temperature for 30 minutes. After centrifugation at 18,200 relative centrifugal force (rcf) for 5 minutes, 100 µL of the supernatant was mixed with 100 µL of 1% formic acid.
A nonincubated plasma sample spiked with 10 µM sample concentration was prepared in the same way and was used as the reference. A pure plasma sample was incubated for 24 hours as a blank sample. A further pure plasma sample was incubated for 24 hours, processed as described above and spiked directly before analysis to determine the recovery. The samples were analyzed using an Agilent 1290 UHPLC system coupled to an Agilent 6530 QTOF mass spectrometer.
For the quantitative data analysis, the Agilent Quantitative Analysis B.08.00 software (RRID:SCR_015040) was used. The ion currents of the triply charged proton adducts of the compounds were extracted with a mass window of ±50 parts per million and the chromatographic peak was integrated. The concentration of the compound was determined by external matrix calibration with internal standard using 6 calibration samples (1, 2.5, 5, 7.5, 10, and 12.5 µM). A quadratic regression was performed. Carryover was determined by analyzing the blank sample directly after the highest calibration sample and comparing the determined peak areas. Recovery was calculated as the ratio between the spiked concentration of the recovery sample and the concentration calculated from the peak area of this sample.

SMILES: CCCCCC(=O)N[C@H]1CSCc2cc(cc(CN3CCN(C(=O)CN4CCN(CC(=O)O)CCN(CC(=O)O)CCN(CC(=O)O)CC4)CC3)c2)CSC[C@@H](C(=O)N[C@@H](CC(=O)O)C(N)=O)NC(=O)[C@H](Cc2ccccc2)NC(=O)[C@H](CCC(N)=O)NC(=O)[C@H]([C@@H](C)O)NC(=O)[C@@H]2CCCN2C(=O)[C@@H]2CCCN2C1=O [FAP-2287] (Hexanoyl-CPPTQFCD-NH2; linker 1-7 via X1)
- Plasma Stability (24 h) Human Plasma (human plasma with 3.8% sodium citrate): > 80%
- Plasma Stability (24 h) Mouse Plasma (mouse plasma with 3.8% sodium citrate): > 80%
